Measured values: patent US11548888B2, “KRas G12C inhibitors” (Mirati Therapeutics, Inc., priority 2019, dated 2023)

These molecules were tested against T1, KRas G12C (Homo sapiens, UniProt P01116, G12C) (assay: Inhibition of KRas G12C-dependent cell growth: Phospho-ERK in NCI-H358 cells). Details: NCI-H358 cells expressing KRas G12C; Phospho-ERK (Thr202/Tyr204) normalized to GAPDH; 3 hours compound; 4 parameter fit.
T1 construct: NCI-H358 cells (ATCC CRL-5807) express KRas G12C
Assay type: cell-based
How it was run: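 Phospho-ERK read-out in KRas G12C-expressing NCI-H358 cells after 3 h compound treatment (final DMSO 0.5%), by in-cell infrared immunodetection. Signal normalized to GAPDH and to DMSO controls. 4-parameter curve fit gave IC50.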

T1 sequence (P01116 1-188 isoform P01116-2 G12C): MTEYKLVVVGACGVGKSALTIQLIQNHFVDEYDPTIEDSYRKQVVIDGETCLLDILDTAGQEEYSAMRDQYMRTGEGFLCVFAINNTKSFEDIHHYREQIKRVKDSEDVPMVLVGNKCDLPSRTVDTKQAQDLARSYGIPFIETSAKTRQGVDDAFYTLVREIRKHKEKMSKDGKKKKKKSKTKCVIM

SMILES	IC50
C#Cc1cccc2cc(O)cc(-c3ncc4c(N5C[C@@H]6[C@H]5CCN6C(=O)C=C)ncnc4c3F)c12 [Example 291, 1-((1R,5R)-6-(7-(8-ethynyl-3-hydroxynaphthalen-1-yl)-8-fluoropyrido[4,3-d]pyrimidin-4-yl)-2,6-diazabicyclo[3.2.0]heptan-2-yl)prop-2-en-1-one]	2 nM
C=CC(=O)N1CCN(c2nc(OC[C@@H]3CCCN3C)nc3cc(-c4cc(O)cc5ccccc45)ncc23)CC1 [Example 6, 1-[4-[7-(3-hydroxy-1-naphthyl)-2-[[(2S)-1-methylpyrrolidin-2-yl]methoxy]pyrido[4,3-d]pyrimidin-4-yl]piperazin-1-yl]prop-2-en-1-one]	300 nM
CC#CC(=O)N1CCN(c2ncnc3c(F)c(-c4cccc5ccc(F)c(Cl)c45)ncc23)CC1 [Example 201]	10000 nM
C#Cc1cccc2cccc(-c3ncc4c(N5C[C@@H]6[C@H]5CCN6C(=O)C=C)nc(N5CC(N(C)C)C5)nc4c3F)c12 [Example 298]	24 nM
C=CC(=O)N1CCN(c2ncnc3cc(-c4cccc5cccc(C)c45)ncc23)C[C@@H]1CC#N [Example 40, (S)-2-(1-acryloyl-4-(7-(8-methylnaphthalen-1-yl)pyrido[4,3-d]pyrimidin-4-yl)piperazin-2-yl)acetonitrile]	496 nM
C=CC(=O)N1CC[C@@H]2[C@H]1CN2c1ncnc2c(F)c(-c3cccc4cccc(C)c34)ncc12 [Example 283]	2430 nM
C=CC(=O)N1C[C@@H](C)N(c2ncnc3c(F)c(-c4cccc5ccc(F)c(Cl)c45)ncc23)[C@@H](C)C1 [Example 149]	10000 nM
C=CC(=O)N1CC[C@@H]2[C@H]1CN2c1nc(N(CC)CC)nc2c(F)c(-c3cccc4ccc(F)c(Cl)c34)ncc12 [Example 275]	10000 nM
C=CC(=O)N1CC[C@@H]2[C@H]1CN2c1ncnc2c(F)c(-c3cccc4ccc(F)c(CC)c34)ncc12 [Example 304, 1-((1R,5R)-6-(7-(8-ethyl-7-fluoronaphthalen-1-yl)-8-fluoropyrido[4,3-d]pyrimidin-4-yl)-2,6-diazabicyclo[3.2.0]heptan-2-yl)prop-2-en-1-one]	456 nM
C=C(F)C(=O)N1CCN(c2nc(OCC34CCCN3CCC4)nc3c(F)c(-c4cccc5ccc(F)c(Cl)c45)ncc23)C[C@@H]1CC#N [Example 114]	2 nM
C=CC(=O)N1CCN(c2nc(OC[C@@H]3CCCN3C)nc3c(F)c(-c4cccc5ccc(F)c(Cl)c45)ncc23)[C@H](C)C1 [Example 155]	585 nM
C=CC(=O)N1CC2(C1)CN(c1ncnc3c(F)c(-c4cccc5ccc(F)c(Cl)c45)ncc13)C2 [Example 159]	10000 nM
C=CC(=O)N1CC[C@@H]2[C@H]1CN2c1ncnc2c(F)c(-c3cccc4ccsc34)ncc12 [Example 278]	10000 nM
C=CC(=O)N1CC2CN(c3nc(OC[C@@H]4CCCN4C)nc4c(F)c(-c5cncc6cccc(Cl)c56)ncc34)CC2C1 (stereo partly drawn) [Example 105]	10000 nM
C=CC(=O)N1CC[C@@H]2[C@H]1CN2c1nc(OC[C@@H]2[C@@H]3C[C@@H]3CN2C)nc2c(F)c(-c3cccc4ccc(F)c(Cl)c34)ncc12 [Example 252]	29 nM
C=CC(=O)N1CCN(c2ncnc3c(F)c(-c4cccc5cccc(Cl)c45)ncc23)CC1 [Example 137]	3350 nM
C=CC(=O)N1CCN(c2ncnc3c(F)c(-c4c(O)ccc5ccccc45)ncc23)CC1 [Example 225]	4930 nM
C=CC(=O)N1CCN(c2nc(OC[C@@H]3CCCN3C)nc3c(F)c(-c4cncc5cccc(Cl)c45)ncc23)[C@@H](C)C1 [Example 96]	200 nM
C=CC(=O)N1CC[C@@H]2[C@H]1CN2c1nc(OC[C@@H]2C[C@@H](F)CN2C)nc2c(F)c(-c3cccc4ccc(F)c(Cl)c34)ncc12 [Example 264]	20 nM
C=C(F)C(=O)N1CCN(c2nc(OCC34CCCN3C(CO)CC4)nc3c(F)c(-c4cccc5ccc(F)c(Cl)c45)ncc23)C[C@@H]1CC#N (stereo partly drawn) [Example 216, 2-((2 S)-4-(7-(8-chloro-7-fluoronaphthalen-1-yl)-8-fluoro-2-((3-(hydroxymethyl)tetrahydro-1H-pyrrolizin-7a(5H)-yl)methoxy)pyrido[4,3-d]pyrimidin-4-yl)-1-(2-fluoroacryloyl)piperazin-2-yl)acetonitrile]	121 nM

The remaining lines, values ahead:

IC50	SMILES
18 nM	COC/C=C/C(=O)N1CCN(c2nc(OC[C@@H]3C[C@@H](OC)CN3C)nc3c(F)c(-c4cccc5cccc(Cl)c45)ncc23)C[C@@H]1CC#N [Example 62, 2-((S)-4-(7-(8-chloronaphthalen-1-yl)-8-fluoro-2-(((2S,4R)-4-methoxy-1-methylpyrrolidin-2-yl)methoxy)pyrido[4,3-d]pyrimidin-4-yl)-1-((E)-4-methoxybut-2-enoyl)piperazin-2-yl)acetonitrile]
4380 nM	C=C(F)C(=O)N1CCN(c2nc(OC[C@@H]3CCCN3C)nc3c(F)c(-c4ccccc4F)ncc23)C[C@@H]1CC#N [Example 87]
3000 nM	C=C(F)C(=O)N1CCN(c2nc(OC[C@@H]3CCCN3C)nc3c(F)c(-c4cccc5cccc(Cl)c45)ncc23)[C@H](C)C1 [Example 76]
145 nM	C=C(F)C(=O)N1CCN(c2nc(OC[C@@H]3CCCN3CC(F)F)nc3c(F)c(-c4cccc5ccc(F)c(Cl)c45)ncc23)C[C@@H]1CC#N [Example 185]
618 nM	C=C(F)C(=O)N1CCN(c2nc(OCCc3cccc(N)c3)nc3c(F)c(-c4cccc5cccc(Cl)c45)ncc23)C[C@@H]1CC#N [Example 82]
322 nM	C=CC(=O)N1CCN(c2nc(OC[C@@H]3CCCN3C)nc3c(F)c(-c4cccc5ccc(F)c(Cl)c45)ncc23)C[C@H]1C [Example 152]
15 nM	C=C(F)C(=O)N1CCN(c2nc(OC[C@@H]3C[C@@H](F)CN3C)nc3c(F)c(-c4cccc5ccc(F)c(Cl)c45)ncc23)C[C@@H]1CC#N [Example 126]
67 nM	C=C(F)C(=O)N1CCN(c2nc(OC[C@H]3CN(C)C[C@H]3F)nc3c(F)c(-c4cccc5ccc(F)c(Cl)c45)ncc23)C[C@@H]1CC#N [Example 193]
88 nM	C=C(F)C(=O)N1CCN(c2nc(OC[C@@H]3CC4CCN3C4)nc3c(F)c(-c4cccc5ccc(F)c(Cl)c45)ncc23)C[C@@H]1CC#N (stereo partly drawn) [Example 244]
137 nM	C=C(F)C(=O)N1CCN(c2nc(OC[C@@H]3CCCN3C)nc3c(Cl)c(-c4cccc5cccc(C)c45)ncc23)C[C@@H]1CC#N [Example 32, 2-[(2S)-4-[8-chloro-7-(8-methyl-1-naphthyl)-2-[[(2S)-1-methylpyrrolidin-2-yl]methoxy]pyrido[4,3-d]pyrimidin-4-yl]-1-(2-fluoroprop-2-enoyl)piperazin-2-yl]acetonitrile]
23 nM	C=C(F)C(=O)N1CCN(c2nc(OC[C@@H]3CCCN3C)nc3c(F)c(-c4cccc5ccc(Cl)c(Cl)c45)ncc23)C[C@@H]1CC#N [Example 147]
32 nM	C=CC(=O)N1CCN(c2nc(C)nc3c(F)c(-c4cccc5ccc(F)c(Cl)c45)ncc23)C[C@@H]1CC#N [Example 122]
53 nM	C=C(F)C(=O)N1CCN(c2nc(OC[C@@H]3C[C@@H](F)CN3C)nc3c(F)c(-c4cncc5cccc(C)c45)ncc23)C[C@@H]1CC#N [Example 50, 2-[(2S)-4-[8-fluoro-2-[[(2S,4R)-4-fluoro-1-methyl-pyrrolidin-2-yl]methoxy]-7-(5-methyl-4-isoquinolyl)pyrido[4,3-d]pyrimidin-4-yl]-1-(2-fluoroprop-2-enoyl)piperazin-2-yl]acetonitrile]
